Results: patent US10375959B2, “Ternary herbicidal combination comprising saflufenacil” (BASF Agro B.V., priority 2015, dated 2019)

Assays:
Format in all cases: in vivo
Amaranthus retroflexus = experiment: Greenhouse post-emergence herbicidal activity on AMARE (pig weed), 20 DAT; conditions: AMARE
Excerpt: (§1) The test plants were first grown to a height of 3 to 20 cm, depending on the plant habit, and only then treated (post-emergence treatment). Here, the herbicidal combinations were suspended, emulsified or dissolved in water as distribution medium and afterwards applied by spraying, using finely distributing nozzles.
(§2) The herbicides A, B and C were used as commercially available formulations and introduced to the spray liquor with the amount of solvent system used for applying the active compound. In the examples, the solvent used was water.
(§3) The test period extended over 20 days. During this time, the plants were tended, and their response to the treatments with active compounds was evaluated.
(§4) The evaluation for the damage caused by the chemical compositions was carried out using a scale from 0 to 100%, compared to the untreated control plants. Here, 0 means no damage and 100 means complete destruction of the plants.
(§5) The plants used in the greenhouse experiments belonged to the following species:
(§6) The value E, which is to be expected if the activity of the individual compounds is just additive, was calculated using the method of S. R. Colby (1967) “Calculating synergistic and antagonistic responses of herbicide combinations”, Weeds 15, p. 22 ff. For two component mixtures the value E was calculated by the following formula E=X+Y−(X·Y/100)
(§7) where X=effect in percent using a mixture of herbicides A and B at application rates a and b, respectively; • Y=effect in percent using herbicide C at an application rate c; • E=expected effect (in %) of A+B+C at application rates a+b+c.
(§8) If the value observed in this manner is higher than the value E calculated according to Colby, a synergistic effect is present.
(§9) Tables 1 to 41 relate to the herbicidal activities of the binary mixture of herbicides A and B, of herbicide C individually and of their combinations in post-emergence applications assessed 20 days after treatment (20 DAT).

Echinochloa crus-galli = experiment: Greenhouse post-emergence herbicidal activity on ECHCG (barnyardgrass), 20 DAT
Excerpt: as §1, §2, §3, §4, §5, §6, §7, §8, §9

Abutilon theophrasti = experiment: Greenhouse post-emergence herbicidal activity on ABUTH (velvetleaf), 20 DAT; conditions: ABUTH
Excerpt: as §1, §2, §3, §4, §5, §6, §7, §8, §9

Setaria viridis = experiment: Greenhouse post-emergence herbicidal activity on SETVI (green foxtail), 20 DAT; conditions: Setaria viridis, 480 h, 0.5 g ai/ha, 20 DAT, read-out: % activity 20 DAT, solo C application
Excerpt: as §1, §2, §3, §4, §5, §6, §7, §8, §9

Digitaria sanguinalis = experiment: Greenhouse post-emergence herbicidal activity on DIGSA (large crabgrass), 20 DAT; conditions: DIGSA
Excerpt: as §1, §2, §3, §4, §5, §6, §7, §8, §9

Brachiaria platyphylla = experiment: Greenhouse post-emergence herbicidal activity on BRAPP (broadleaf signalgrass), 20 DAT
Excerpt: as §1, §2, §3, §4, §5, §6, §7, §8, §9

Solarium nigrum = experiment: Greenhouse post-emergence herbicidal activity on SOLNI (black nightshade), 20 DAT; conditions: C 0.125 g ai/ha
Excerpt: as §1, §2
The test period extended over 20 days. During this time, the plants were tended, and their response to the treatments with active compounds was evaluated. […]
The value E, which is to be expected if the activity of the individual compounds is just additive, was calculated using the method of S. R. Colby (1967) “Calculating synergistic and antagonistic responses of herbicide combinations”, Weeds 15, p. […] For two component mixtures the value E was calculated by the following formula E=X+Y−(X·Y/100) […]
as §8, §9

Avena fatua = experiment: Greenhouse post-emergence herbicidal activity on AVEFA (wild oat), 20 DAT
Excerpt: as §1, §2, §3, §4, §5, §6, §7, §8, §9

COCc1cnc(C2=NC(C)(C(C)C)C(=O)N2)c(C(=O)O)c1 (stereo not drawn) [imazamox]
% activity 20 DAT (Amaranthus retroflexus; C 0.125 g ai/ha): 10%
inhibition at 0.5 g/ha (Amaranthus retroflexus; Amaranthus retroflexus, 480 h, 0.5 g ai/ha, 20 DAT, read-out: % activity 20 DAT, solo C application): 40%
% activity 20 DAT (Echinochloa crus-galli; C 0.5 g ai/ha): 0%
inhibition at 0.5 g/ha (Abutilon theophrasti; Abutilon theophrasti, 480 h, 0.5 g ai/ha, 20 DAT, Table 38, read-out: % activity 20 DAT, solo C application): 0%
pest or weed control at 0.5 g/ha (Abutilon theophrasti; Abutilon theophrasti, 480 h, C 0.5 g ai/ha): 0%
inhibition at 0.5 g/ha (Setaria viridis): 15%
% activity 20 DAT (Digitaria sanguinalis; C 1.0 g ai/ha): 15%
inhibition at 0.5 g/ha (Digitaria sanguinalis; Digitaria sanguinalis, 480 h, 0.5 g ai/ha, 20 DAT, read-out: % activity 20 DAT, solo C application): 10%

CS(=O)(=O)c1ccc(C(=O)C2C(=O)CCCC2=O)c([N+](=O)[O-])c1 [mesotrione]
% activity (Amaranthus retroflexus; 20 DAT, C 0.625): 0%
inhibition at 0.625 g/ha (Abutilon theophrasti; Abutilon theophrasti, 480 h, 0.625 g ai/ha, 20 DAT, read-out: % activity 20 DAT, solo C application): 75%
% activity (Brachiaria platyphylla; 20 DAT, C 5.0): 35%
inhibition at 5 g/ha (Brachiaria platyphylla; Urochloa platyphylla, 480 h, 5.0 g ai/ha, 20 DAT, read-out: % activity 20 DAT, solo C application): 40%
% activity 20 DAT (Digitaria sanguinalis; C 2.5 g ai/ha): 80%

CCOc1nc(F)cc2nc(S(=O)(=O)Nc3c(Cl)cccc3Cl)nn12 [diclosulam]
% activity 20 DAT (Solarium nigrum): 0%
% activity 20 DAT (Echinochloa crus-galli; C 1.0 g ai/ha): 20%
% activity 20 DAT, solo C application (Abutilon theophrasti; 0.125 g ai/ha, 20 DAT): 10%
% activity 20 DAT, solo C application (Brachiaria platyphylla; 1.0 g ai/ha, 20 DAT): 45%
% activity 20 DAT (Digitaria sanguinalis; C 0.5 g ai/ha): 25%

COc1c(Cl)ccc(Cl)c1C(=O)O [dicamba]
pest or weed control at 4.375 g/ha (Abutilon theophrasti; Abutilon theophrasti, 480 h, C 4.375 g ai/ha): 40%
% activity 20 DAT (Brachiaria platyphylla; C 17.5 g ai/ha): 40%

CCc1cnc(C2=NC(C)(C(C)C)C(=O)N2)c(C(=O)O)c1 (stereo not drawn) [imazethapyr]
% activity 20 DAT (Amaranthus retroflexus; C 1.0 g ai/ha): 55%
% activity 20 DAT (Avena fatua; C 0.5 g ai/ha): 0%
% activity 20 DAT (Digitaria sanguinalis; C 0.5 g ai/ha): 15%
% activity 20 DAT (Digitaria sanguinalis; C 2.0 g ai/ha): 20%

CCCCC(CC)COC(=O)COc1ccc(Cl)cc1Cl (stereo not drawn) [2,4-D LV ester, 2-ethylhexyl ester of 2,4-D]
% activity 20 DAT (Abutilon theophrasti; C 6.25 g ai/ha): 20%
% activity 20 DAT (Brachiaria platyphylla; C 6.25 g ai/ha): 20%
% activity 20 DAT (Digitaria sanguinalis; C 6.25 g ai/ha): 0%

COC[C@H](C)N(C(=O)CCl)c1c(C)csc1C [dimethenamid-P]
% activity 20 DAT, solo C application (Amaranthus retroflexus; 37.5 g ai/ha, 20 DAT): 0%
% activity 20 DAT (Amaranthus retroflexus; C 18.75 g ai/ha): 0%
% activity 20 DAT (Avena fatua; C 75.0 g ai/ha): 20%
% activity 20 DAT, solo C application (Echinochloa crus-galli; 75 g ai/ha, 20 DAT): 80%
% activity 20 DAT, solo C application (Abutilon theophrasti; 37.5 g ai/ha, 20 DAT): 0%
% activity 20 DAT (Brachiaria platyphylla; C 75.0 g ai/ha): 5%
